Assay [1] concerns the target CB2R (Homo sapiens, UniProt P34972). Description: CB2R radioligand displacement binding assay (CP55940 radioligand). On the procedure:
Detailed radioligand displacement assays (using the well-characterized CBR agonist […] as the radioligand) were conducted to determine the affinity (Ki) of the test compounds for CB1R and CB2R as has been previously described by our group^112,113. Heterologous competition binding assays were performed to calculate receptor affinities. Unlabeled SR141716 or SR144528 were used as appropriate controls for non-specific binding (NSB) in the assay. Calculation of the equilibrium dissociation constant (Ki) was performed using the Cheng-Prusoff equation.
A general note: In a radioligand displacement assay an active substance lowers the binding of a labelled ligand.

Assay [2] deals with CB1R (Homo sapiens, UniProt P21554). Description: CB1R radioligand displacement binding assay (CP55940 radioligand). On the procedure: Heterologous competition binding assays were performed to calculate receptor affinities. Unlabeled SR141716 or SR144528 were used as appropriate controls for non-specific binding (NSB) in the assay. Calculation of the equilibrium dissociation constant (Ki) was performed using the Cheng-Prusoff equation.
CB1R, sequence (P21554 whole entry): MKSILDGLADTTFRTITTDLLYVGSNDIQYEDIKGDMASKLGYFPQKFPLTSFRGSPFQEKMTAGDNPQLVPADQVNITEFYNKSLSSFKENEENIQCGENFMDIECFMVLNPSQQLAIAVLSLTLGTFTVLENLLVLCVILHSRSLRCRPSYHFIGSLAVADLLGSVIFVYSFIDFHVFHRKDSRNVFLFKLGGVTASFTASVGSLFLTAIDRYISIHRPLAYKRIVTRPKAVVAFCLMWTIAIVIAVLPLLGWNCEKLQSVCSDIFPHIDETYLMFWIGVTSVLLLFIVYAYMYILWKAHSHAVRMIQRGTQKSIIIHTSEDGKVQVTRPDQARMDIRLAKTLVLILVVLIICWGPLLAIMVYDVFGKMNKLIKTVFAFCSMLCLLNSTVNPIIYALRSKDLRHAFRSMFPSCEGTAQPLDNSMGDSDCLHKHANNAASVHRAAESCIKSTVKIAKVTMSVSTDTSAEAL

Setting [3] is: Table 1, CP55940 radioligand, read-out: CB1_KI_CP.

Read-outs that look alike come from different tables or passages of the source.

CB2R, sequence (P34972 whole entry): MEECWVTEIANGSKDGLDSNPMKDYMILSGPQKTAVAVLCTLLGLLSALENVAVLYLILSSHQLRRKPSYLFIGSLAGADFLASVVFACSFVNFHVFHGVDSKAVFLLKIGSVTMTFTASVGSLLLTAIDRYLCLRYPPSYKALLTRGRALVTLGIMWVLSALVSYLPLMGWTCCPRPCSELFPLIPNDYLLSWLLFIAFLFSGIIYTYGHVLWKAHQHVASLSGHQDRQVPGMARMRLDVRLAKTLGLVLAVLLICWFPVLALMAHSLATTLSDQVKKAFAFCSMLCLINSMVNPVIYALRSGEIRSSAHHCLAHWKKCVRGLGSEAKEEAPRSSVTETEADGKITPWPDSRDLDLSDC

Regarding `CCCCCn1cc(C(=O)c2cccc3ccccc23)c2ccccc21` [Compound 1, 3-(naphthalene-1-carbonyl)-1-pentyl-1H-indole, reference compound], the Ki in assay [1] is 0.00738 µM; in assay [2] (setting [3]), 0.00431 µM.
In the case of `C1=C(CCN2CCOCC2)c2ccccc2/C1=C/c1ccc2c3c(cccc13)CC2` [Compound 12, 4-{2-[(1E)-1-(1,2-dihydroacenaphth-ylen-5-ylmethylidene)-1H-inden-3-yl]ethyl} morpholine], the Ki is 0.00422 µM in assay [1] (Table 1, CP55940 radioligand, read-out: CB2_KI_CP) and 0.0159 µM in assay [2] (read-out: CB1R binding affinity (Ki)).
In the case of `C1=C(CCN2CCOCC2)c2ccccc2/C1=C/c1cccc2ccc3ccccc3c12` [Compound 13, 4-{2-[(1E)-1-(phenanthren-4-ylmethylidene)-1H-inden-3-yl]ethyl} morpholine], the Ki was 0.006 µM in assay [1] and 0.0229 µM in assay [2] (setting [3]).
Take `C1=C(CCN2CCOCC2)c2ccccc2/C1=C/c1ccnc2ccccc12` [Compound 14, 4-{[(1E)-3-[2-(morpholin-4-yl)ethyl]-1H-inden-1-ylidene]methyl} quinoline]: the Ki in assay [1] was 0.0121 µM; in assay [2] it was 0.023 µM; in assay [2] (setting [3]) it was 0.0233 µM.
Regarding `CC1=C(CCN2CCOCC2)c2ccccc2/C1=C/c1cccc2ccccc12` [Compound 15, 4-{2-[(1E)-2-methyl-1-(naphthalen-1-ylmethylidene)-1H-inden-3-yl]ethyl} morpholine], the Ki in assay [1] stood at 0.00284 µM.
As to `C1=C(CCN2CCOCC2)c2ccccc2/C1=C/c1ccccc1-c1ccccc1` [Compound 16, 4-{2-[(1E)-1-[(2-phenylphenyl)methylidene]-1H-inden-3-yl]ethyl} morpholine], the Ki in assay [1] was 0.0153 µM; in assay [2] (setting [3]) it was 0.0829 µM.
With `C1=C(CCN2CCOCC2)c2ccccc2/C1=C/c1cccc2cc[nH]c12` [Compound 17, 7-{[(1E)-3-[2-(morpholin-4-yl)ethyl]-1H-inden-1-ylidene]methyl}-1H-indole], the Ki in assay [1] was found to be 0.0087 µM; in assay [2] (setting [3]) it was 0.107 µM.
Taken in the same sequence, the figures for `COc1ccccc1/C=C1\C=C(CCN2CCOCC2)c2ccccc21` [Compound 18, 4-{2-[(1E)-1-[(2-methoxyphenyl)meth-ylidene]-1H-inden-3-yl]ethyl} morpholine] were 0.0298 µM and 0.149 µM.
Taken in the same sequence, the figures for `CCCCCC1=C/C(=C\c2cccc3ccccc23)c2ccccc21` [Compound 19, 1-{[(1E)-3-pentyl-1H-inden-1-ylidene]methyl} naphthalene, reference compound] were 0.163 µM and 0.0172 µM.
`C1=C(CCN2CCOCC2)c2ccccc2/C1=C/c1ccc2ccccc2c1` [Compound 20, 4-{2-[(1E)-1-(naphthalen-2-ylmethylidene)-1H-inden-3-yl]ethyl} morpholine]: the figures for the Ki in assay [1] and in assay [2] (setting [3]) were 0.0244 µM and 0.134 µM, respectively.
Regarding `CCCCCCC1=C/C(=C\c2cccc3ccccc23)c2ccccc21` [Compound 21, 1-{[(1E)-3-hexyl-1H-inden-1-ylidene]methyl} naphthalene], the Ki in assay [1] was 1.45 µM.
`C1=C(CCN2CCOCC2)c2ccccc2/C1=C/c1cccc2cnccc12` [Compound 22, 5-{[(1E)-3-[2-(morpholin-4-yl)ethyl]-1H-inden-1-ylidene]methyl} isoquinoline]: the figures for the Ki in assay [1] and in assay [2] (setting [3]) were 0.0514 µM and 0.454 µM, respectively.
For `Ic1ccccc1/C=C1\C=C(CCN2CCOCC2)c2ccccc21` [Compound 23, 4-{2-[(1E)-1-[(2-iodophenyl)methyl-idene]-1H-inden-3-yl]ethyl} morpholine], the Ki was determined as 0.109 µM in assay [1] and 0.607 µM in assay [2] (setting [3]).
As to `Cc1ccccc1/C=C1\C=C(CCN2CCOCC2)c2ccccc21` [Compound 24, 4-{2-[(1E)-1-[(2-methylphenyl)methylidene]-1H-inden-3-yl]ethyl} morpholine], the Ki in assay [1] was found to be 0.0954 µM; in assay [2] (setting [3]), 0.623 µM.
For `Brc1ccccc1/C=C1\C=C(CCN2CCOCC2)c2ccccc21` [Compound 25, 4-{2-[(1E)-1-[(2-bromophenyl)methylidene]-1H-inden-3-yl]ethyl} morpholine] the same measures were 0.206 µM and 0.647 µM.
For `Clc1ccccc1/C=C1\C=C(CCN2CCOCC2)c2ccccc21` [Compound 26, 4-{2-[(1E)-1-[(2-chlorophenyl)methylidene]-1H-inden-3-yl]ethyl} morpholine], in assay [2] (setting [3]), the Ki is 0.862 µM.
Take `Fc1ccccc1/C=C1\C=C(CCN2CCOCC2)c2ccccc21` [Compound 28, 4-{2-[(1E)-1-[(2-fluorophenyl)methylidene]-1H-inden-3-yl]ethyl} morpholine]: the results for the Ki in assay [1] and in assay [2] (setting [3]) were 0.429 µM and 1 µM, respectively.
Taken in the same sequence, the figures for `C1=C(CCN2CCOCC2)c2ccccc2/C1=C/c1ccccc1` [Compound 29, 4-{2-[(1E)-1-(phenyl-methylidene)-1H-inden-3-yl]ethyl} morpholine] were 0.295 µM and 1.3 µM.
Taken in the same sequence, the figures for `C1=C(CCN2CCOCC2)c2ccccc2/C1=C/c1cccs1` [Compound 30, 4-{2-[(1E)-1-(thiophen-2-ylmethylidene)-1H-indene-3-yl]ethyl} morpholine] were 3.02 µM and 8.53 µM.
With `C1=C(CCN2CCOCC2)c2ccccc2/C1=C/c1ccco1` [Compound 31, 4-{2-[(1E)-1-(furan-2-ylmethylidene)-1H-inden-3-yl]ethyl} morpholine], in assay [1], the Ki turned out to be 1.26 µM.
In the case of `C[N+]1(CCC2=C/C(=C\c3cccc4ccccc34)c3ccccc32)CCOCC1` [Compound 35, 4-methyl-4-{2-[(1E)-1-(naphthalen-1-ylmethylidene)-1H-inden-3-yl]ethyl} morpholin-4-ium iodide], the Ki in assay [2] (setting [3]) stood at 0.982 µM.
The same measure, in the same setting: the value for `CC1=C(CC[N+]2(C)CCOCC2)c2ccccc2/C1=C/c1cccc2ccccc12` [Compound 36, 4-methyl-4-{2-[(1E)-2-methyl-1-(naphthalen-1-ylmethylidene)-1H-inden-3-yl]ethyl} morpholin-4-ium iodide] was 1.61 µM.
For `C1=C(CCN2CCOCC2)c2ccccc2/C1=C/c1cccc(-c2ccccc2)c1` [Compound 37, 4-{2-[(1E)-1-[(3-phenylphenyl)methylidene]-1H-inden-3-yl]ethyl} morpholine], the values for the Ki in assay [1] and in assay [2] (setting [3]) were 0.132 µM and 2.6 µM, respectively.
Take `CCCCCCC1=C/C(=C\Cc2ccccc2)c2ccccc21` [Compound 38, (1E)-3-hexyl-1-(2-phenyl-ethylidene)-1H-indene]: the values for the Ki in assay [1] and in assay [2] were 13.7 µM and 4.41 µM, respectively.
Turning to `O=C(c1cccc2ccccc12)c1cn(CCN2CCOCC2)c2ccccc12` [Compound 39, 1-[2-(morpholin-4-yl)ethyl]-3-(naphthalene-1-carbonyl)-1H-indole, reference compound], in assay [2] (setting [3]), the Ki was found to be 0.0816 µM.
Same read-out and setting: the value for `COc1ccc(C(=O)c2cn(CC[N+]3(C)CCOCC3)c3ccccc23)c2ccccc12` [Compound 41, 4-{2-[3-(4-methoxynaphth-alene-1-carbonyl)-1H-indol-1-yl]ethyl}-4-methylmorpholin-4-ium iodide] was 4.08 µM.
On the same count and under the same terms, the value for `COc1ccc(C(=O)c2cn(CCN3CCOCC3)c3ccccc23)c2ccccc12` [Compound 42, 3-(4-methoxynaphtha-lene-1-carbonyl)-1-[2-(morpholin-4-yl)ethyl]-1H-indole, reference compound] was 0.0881 µM; that for `Cc1ccc(C(=O)c2cn(CC[N+]3(C)CCOCC3)c3ccccc23)c2ccccc12` [Compound 43, 4-methyl-4-{2-[3-(4-methyl-naphthalene-1-carbonyl)-1H-indol-1-yl]ethyl}morpholin-4-ium iodide] was 4.17 µM.
Still for that read-out and setting: under `Cc1ccc(C(=O)c2cn(CCN3CCOCC3)c3ccccc23)c2ccccc12` [Compound 44, 3-(4-methyl-naphthalene-1-carbonyl)-1-[2-(morpholin-4-yl)ethyl]-1H-indole, reference compound] stands 0.0202 µM; under `CCOC(=O)CCCn1cc(C(=O)c2cccc3ccccc23)c2ccccc21` [Compound 50, ethyl 4-[3-(naphthalene-1-carbonyl)-1H-indol-1-yl]butanoate], 0.747 µM.
In the case of `CCOC(=O)CCCCn1cc(C(=O)c2cccc3ccccc23)c2ccccc21` [Compound 53, ethyl 5-[3-(naphthalene-1-carbonyl)-1H-indol-1-yl]pentanoate], the Ki in assay [2] (setting [3]) amounted to 1.47 µM.
As to `CCCCCn1cc(C(=O)c2ccc(C(=O)OCC)c3ccccc23)c2ccccc21` [Compound 58, ethyl 4-(1-pentyl-1H-indole-3-carbonyl)naphth-alene-1-carboxylate], the figures for the Ki in assay [1] and in assay [2] (setting [3]) were 0.0539 µM and 0.115 µM, respectively.
`CCCCCn1cc(C(=O)c2ccc(C(N)=O)c3ccccc23)c2ccccc21` [Compound 59, 4-(1-pentyl-1H-indole-3-carbonyl)naph-thalene-1-carboxamide]: the Ki in assay [1] stood at 0.135 µM; in assay [2] (setting [3]), 0.0966 µM.
`CCCCCn1cc(C(=O)c2ccc(C(=O)NC)c3ccccc23)c2ccccc21` [Compound 60, N-methyl-4-(1-pentyl-1H-indole-3-carbonyl) naphthalene-1-carboxamide]: the Ki in assay [1] amounted to 0.303 µM; in assay [2] (setting [3]) it was 0.127 µM.
For `O=C(c1cccc2ccccc12)c1cn(CCCCCF)c2cccc(F)c12` [Compound 66, 4-fluoro-1-(5-fluoropentyl)-3-(naphthalene-1-carbonyl)-1H-indole] the same measures were 0.00294 µM and 0.00438 µM.
Regarding `O=C(c1cccc2ccccc12)c1cn(CCN2CCOCC2)c2cccc(F)c12` [Compound 68, 4-fluoro-1-[2-(morpholin-4-yl)ethyl]-3-(naphthalene-1-carbonyl)-1H-indole], the Ki is 0.0952 µM in assay [1] and 0.237 µM in assay [2] (setting [3]).

These data come from US9656981B2, “Peripherally-acting cannabinoid receptor agonists for chronic pain” (The Regents of the University of California, priority 2012, dated 2017).
